Reference: patent US11285127B2, “Compositions and methods for lowering triglycerides without raising LDL-C levels in a subject on concomitant statin therapy” (Amarin Pharmaceuticals Ireland Limited, priority 2013, dated 2022)

Columns and labels:
[1] = system: patients with fasting triglyceride levels >200 mg/dl and <500 mg/dl despite statin therapy; assay: 12-week study: oxidized LDL; type: in vivo, human; conditions: MITT; for Oxidized LDL Percent change from Baseline Median (IQR): Week 12 endpoint; for Oxidized LDL Difference from placebo Estimated median: percent change from baseline to Week 12 endpoint
Excerpt: (§1) Parameters (a)-(z) can be measured in accordance with any clinically acceptable methodology. For example, triglycerides, total cholesterol, HDL-C and fasting blood sugar can be sample from serum and analyzed using standard photometry techniques. VLDL-TG, LDL-C and VLDL-C can be calculated or determined using serum lipoprotein fractionation by preparative ultracentrifugation and subsequent quantitative analysis by refractometry or by analytic ultracentrifugal methodology. Apo A1, Apo B and hsCRP can be determined from serum using standard nephelometry techniques. Lipoprotein (a) can be determined from serum using standard turbidimetric immunoassay techniques. LDL particle number and particle size can be determined using nuclear magnetic resonance (NMR) spectrometry. Remnants lipoproteins and LDL-phospholipase A2 can be determined from EDTA plasma or serum and serum, respectively, using enzymatic immunoseparation techniques. Oxidized LDL, intercellular adhesion molecule-1 and interleukin-2 levels can be determined from serum using standard enzyme immunoassay techniques. These techniques are described in detail in standard textbooks, for example Tietz Fundamentals of Clinical Chemistry, 6th Ed. (Burtis, Ashwood and Borter Eds.), WB Saunders Company.
(§2) A multi-center, placebo-controlled, randomized, double-blind, 12-week study was performed to evaluate the efficacy and safety of >96% E-EPA in patients with fasting triglyceride levels >200 mg/dl and <500 mg/dl despite statin therapy (the mean of two qualifying entry values needed to be >185 mg/dl and at least one of the values needed to be >200 mg/dl). The primary objective of the study was to determine the efficacy of >96% E-EPA 2 g daily and 4 g daily, compared to placebo, in lowering fasting TG levels in patients with high risk for cardiovascular disease and with fasting TG levels 200 mg/dl and <500 mg/dl, despite treatment to LDL-C goal on statin therapy.
(§3) The secondary objectives of this study were the following: • 1. To determine the safety and tolerability of >96% E-EPA 2 g daily and 4 g daily; • 2. To determine the effect of >96% E-EPA on lipid and apolipoprotein profiles including total cholesterol (TC), non-high-density lipoprotein cholesterol (non-HDL-C), low density lipoprotein cholesterol (LDL-C), high density lipoprotein cholesterol (HDL-C), and […]; • 3. To determine the effect of >96% E-EPA on lipoprotein associated phospholipase A2 (Lp-PLA2) from baseline to week 12; • 4. To determine the effect of >96% E-EPA on low-density lipoprotein (LDL) particle number and size; • 5. To determine the effect of >96% E-EPA on oxidized LDL; • 6. To determine the effect of >96% E-EPA on fasting plasma glucose (FPG) and hemoglobin A1c (HbA1c); • 7. To determine the effect of >96% E-EPA on insulin resistance; • 8. To determine the effect of >96% E-EPA on high-sensitivity C-reactive protein (hsCRP); • 9. To determine the effects of >96% E-EPA 2 g daily and 4 g daily on the incorporation of fatty acids into red blood cell membranes and into plasma phospholipids; • 10. To explore the relationship between baseline fasting TG levels and the reduction in fasting TG levels; and • 11. To explore the relationship between changes of fatty acid concentrations in plasma and red blood cell membranes, and the reduction in fasting TG levels.
(§4) The primary efficacy variable for the double-blind treatment period was percent change in TG from baseline to Week 12 endpoint. […]

[2] = system: patients with fasting triglyceride levels >200 mg/dl and <500 mg/dl despite statin therapy; assay: 12-week study: inflammatory biomarkers (ICAM-1, interleukin, PAI-1, hsCRP); type: in vivo, human; conditions: MITT; for ICAM-1, Difference from placebo, Estimated median / IL-6, Difference from placebo, Estimated median / PAI-1, Difference from placebo, Estimated median / hsCRP, Difference from placebo, Estimated median: Week 12; for hsCRP, Difference from placebo, Estimated median: post-hoc, median percent change from baseline; for ICAM-1, Week 12 EP Median (IQR) / IL-6, Week 12 EP Median (IQR) / PAI-1, Week 12 EP Median (IQR) / hsCRP, Week 12 EP Median (IQR): Week 12 endpoint (LOCF); for hsCRP, Week 12 EP Median (IQR) / hsCRP, Median % Chg from BL (IQR): post-hoc analysis; for ICAM-1, change from Baseline, Median (IQR) / IL-6, change from Baseline, Median (IQR) / PAI-1, change from Baseline, Median (IQR) / hsCRP, Median % Chg from BL (IQR): baseline to Week 12
Excerpt: as §1, §2, §3, §4

[3] = AMR101 2 g/d + statin vs placebo
[4] = AMR101 4 g/d + statin vs placebo

## CC/C=C\C/C=C\C/C=C\C/C=C\C/C=C\CCCC(=O)OCC [AMR101, ethyl eicosapentaenoate]
[1]; AMR101 2 g/d + statin
  Oxidized LDL Week 12 EP Median (IQR): 55.8 (22.8) U/L
  Oxidized LDL Percent change from Baseline Median (IQR): 2.6 (18.3) %
  Oxidized LDL Difference from placebo Estimated median: −5.8%
[1]; AMR101 4 g/d + statin
  Oxidized LDL Week 12 EP Median (IQR): 51.4 (17.5) U/L
  Oxidized LDL Percent change from Baseline Median (IQR): −4.8 (19.6) %
  Oxidized LDL Difference from placebo Estimated median: −13.3%
[2]; [3]
  ICAM-1, Difference from placebo, Estimated median: -6.0 ng/mL
  IL-6, Difference from placebo, Estimated median: 0.1 pg/mL
  PAI-1, Difference from placebo, Estimated median: 12.1 ng/mL
  hsCRP, Difference from placebo, Estimated median: −6.8%
[2]; AMR101 2 g/d + statin
  ICAM-1, Week 12 EP Median (IQR): 268.5 (89.0) ng/mL
  IL-6, Week 12 EP Median (IQR): 2.7 (2.3) pg/mL
  PAI-1, Week 12 EP Median (IQR): 90.3 (67.4) ng/mL
  hsCRP, Week 12 EP Median (IQR): 2.5 (3.4) mg/L
  ICAM-1, change from Baseline, Median (IQR): 1.5 (37.0) ng/mL
  IL-6, change from Baseline, Median (IQR): 0.2 (1.3) pg/mL
  PAI-1, change from Baseline, Median (IQR): 14.6 (38.8) ng/mL
  hsCRP, Median % Chg from BL (IQR): 10.3 (88.6) %
[2]; [4]
  ICAM-1, Difference from placebo, Estimated median: -6.0 ng/mL
  IL-6, Difference from placebo, Estimated median: -0.1 pg/mL
  PAI-1, Difference from placebo, Estimated median: 0.6 ng/mL
  hsCRP, Difference from placebo, Estimated median: −22.0%
[2]; AMR101 4 g/d + statin
  ICAM-1, Week 12 EP Median (IQR): 270.0 (110.0) ng/mL
  IL-6, Week 12 EP Median (IQR): 2.6 (2.1) pg/mL
  PAI-1, Week 12 EP Median (IQR): 85.6 (86.3) ng/mL
  hsCRP, Week 12 EP Median (IQR): 2.0 (3.0) mg/L
  ICAM-1, change from Baseline, Median (IQR): 2.5 (40.0) ng/mL
  IL-6, change from Baseline, Median (IQR): 0.1 (1.8) pg/mL
  PAI-1, change from Baseline, Median (IQR): −3.1 (45.2) ng/mL
  hsCRP, Median % Chg from BL (IQR): −2.4 (62.8) %
